Test results: ChEMBL document CHEMBL1201861, “Genomics of Drug Sensitity in Cancer screening data, Wellcome Trust Sanger Institute”

How the values were obtained:
Assay in all cases: cells
[1] = system: NOMO-1; format: functional, cell-based, Homo sapiens; conditions: Homo sapiens, NOMO-1;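 note: growth inhibition of human NOMO-1 cells measured by a cell viability assay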
Description: SANGER: Inhibition of human NOMO-1 cell growth in a cell viability assay.

[2] = system: IA-LM; format: functional, cell-based; conditions: Homo sapiens;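 note: cell viability assay measuring growth inhibition of human IA-LM cells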
Description: SANGER: Inhibition of human IA-LM cell growth in a cell viability assay.

[3] = system: AM-38; format: functional, cell-based, Homo sapiens; conditions: Homo sapiens, AM-38;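 note: growth inhibition of AM-38 cells of human origin, read out by a cell viability assay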
Description: SANGER: Inhibition of human AM-38 cell growth in a cell viability assay.

[4] = system: HL-60; format: functional, cell-based, Homo sapiens; conditions: Homo sapiens, HL-60;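 note: growth inhibition of human HL-60 cells, read out with a cell viability assay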
Description: SANGER: Inhibition of human HL-60 cell growth in a cell viability assay.

[5] = system: EW-16; format: functional, cell-based, Homo sapiens; conditions: Homo sapiens, EW-16;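 note: growth inhibition of human EW-16 cells, read out as cell viability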
Description: SANGER: Inhibition of human EW-16 cell growth in a cell viability assay.

[6] = system: SBC-1; format: functional, cell-based, Homo sapiens; conditions: Homo sapiens, SBC-1;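 note: cell viability assay measuring growth inhibition of the SBC-1 cell line, IC50 being the concentration that halves growth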
Description: SANGER: Inhibition of human SBC-1 cell growth in a cell viability assay.

[7] = system: SK-N-FI; format: functional, cell-based, Homo sapiens; conditions: Homo sapiens, SK-N-FI;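 note: cell viability assay measuring growth inhibition of human SK-N-FI cells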
Description: SANGER: Inhibition of human SK-N-FI cell growth in a cell viability assay.

[8] = system: MLMA; format: functional, cell-based, Homo sapiens; conditions: Homo sapiens, MLMA;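 note: growth inhibition of MLMA cells (human), determined through a cell viability readout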
Description: SANGER: Inhibition of human MLMA cell growth in a cell viability assay.

[9] = system: C2BBe1; format: functional, cell-based, Homo sapiens; conditions: Homo sapiens, C2BBe1;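 note: growth inhibition of C2BBe1 cells, read out through a viability assay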
Description: SANGER: Inhibition of human C2BBe1 cell growth in a cell viability assay.

[10] = system: OVCAR-4; format: functional, cell-based, Homo sapiens; conditions: Homo sapiens, OVCAR-4;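 note: growth inhibition of human OVCAR-4 cells, measured with a cell viability assay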
Description: SANGER: Inhibition of human OVCAR-4 cell growth in a cell viability assay.

[11] = system: Mo; format: functional, cell-based, Homo sapiens; conditions: Homo sapiens, Mo
Description: SANGER: Inhibition of human Mo-T cell growth in a cell viability assay.

[12] = system: D-263MG; format: functional, cell-based, Homo sapiens; conditions: Homo sapiens, D-263MG
Description: SANGER: Inhibition of human D-263MG cell growth in a cell viability assay.

[13] = system: KINGS-1; format: functional, cell-based, Homo sapiens; conditions: Homo sapiens, KINGS-1;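 note: cell viability assay measuring suppression of KINGS-1 cell growth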
Description: SANGER: Inhibition of human KINGS-1 cell growth in a cell viability assay.

[14] = system: NCI-H446; format: functional, cell-based, Homo sapiens; conditions: Homo sapiens, NCI-H446;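 note: growth inhibition of NCI-H446 cells determined by a cell viability assay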
Description: SANGER: Inhibition of human NCI-H446 cell growth in a cell viability assay.

[15] = system: TGBC1TKB; format: functional, cell-based, Homo sapiens; conditions: Homo sapiens, TGBC1TKB;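 note: growth inhibition of TGBC1TKB cells, read out by a cell viability assay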
Description: SANGER: Inhibition of human TGBC1TKB cell growth in a cell viability assay.

[16] = system: SW 954; format: functional, cell-based, Homo sapiens; conditions: Homo sapiens, SW 954;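 note: growth inhibition of SW954 human cancer cells, read out as cell viability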
Description: SANGER: Inhibition of human SW954 cell growth in a cell viability assay.

[17] = system: ES7; format: functional, cell-based, Homo sapiens; conditions: Homo sapiens, ES7;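 note: growth inhibition of cultured human ES7 cells, read out as cell viability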
Description: SANGER: Inhibition of human ES7 cell growth in a cell viability assay.

[18] = system: EW-18; format: functional, cell-based, Homo sapiens; conditions: Homo sapiens, EW-18; read-out: IC50;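 note: growth inhibition of EW-18 cells, read out by a cell viability assay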
Description: SANGER: Inhibition of human EW-18 cell growth in a cell viability assay.

[19] = system: SW982; format: functional, cell-based; conditions: Homo sapiens;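 note: growth inhibition of SW982 cells, read out with a cell viability assay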
Description: SANGER: Inhibition of human SW982 cell growth in a cell viability assay.

[20] = system: CGTH-W-1; format: functional, cell-based, Homo sapiens; conditions: Homo sapiens, CGTH-W-1;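 note: growth inhibition of human CGTH-W-1 cells measured by cell viability assay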
Description: SANGER: Inhibition of human CGTH-W-1 cell growth in a cell viability assay.

[21] = system: RH-1; format: functional, cell-based, Homo sapiens; conditions: Homo sapiens, RH-1;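 note: growth inhibition of human RH-1 cells, read out with a cell viability assay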
Description: SANGER: Inhibition of human RH-1 cell growth in a cell viability assay.

[22] = system: COLO-684; format: functional, cell-based, Homo sapiens; conditions: Homo sapiens, COLO-684
Description: SANGER: Inhibition of human COLO-684 cell growth in a cell viability assay.

[23] = system: NCI-H1648; format: functional, cell-based, Homo sapiens; conditions: Homo sapiens, NCI-H1648;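 note: cell viability assay measuring inhibition of NCI-H1648 cell growth, from the Sanger screening data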
Description: SANGER: Inhibition of human NCI-H1648 cell growth in a cell viability assay.

[24] = system: OS-RC-2; format: functional, cell-based, Homo sapiens; conditions: Homo sapiens, OS-RC-2;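 note: growth inhibition of human OS-RC-2 cells, measured by a cell viability assay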
Description: SANGER: Inhibition of human OS-RC-2 cell growth in a cell viability assay.

[25] = system: SNU-C2B; format: functional, cell-based; conditions: Homo sapiens;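 note: cell viability readout used to measure compound-driven suppression of SNU-C2B cell proliferation, IC50 marking half-maximal growth inhibition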
Description: SANGER: Inhibition of human SNU-C2B cell growth in a cell viability assay.

[26] = system: RPMI-8226; format: functional, cell-based, Homo sapiens; conditions: Homo sapiens, RPMI-8226
Description: SANGER: Inhibition of human RPMI-8226 cell growth in a cell viability assay.

[27] = system: SK-N-DZ; format: functional, cell-based, Homo sapiens; conditions: Homo sapiens, SK-N-DZ; read-out: IC50;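 note: growth inhibition of the cancer cell line, read out through a viability assay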
Description: SANGER: Inhibition of human SK-N-DZ cell growth in a cell viability assay.

[28] = system: HOP-62; format: functional, cell-based, Homo sapiens; conditions: Homo sapiens, HOP-62;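 note: cell growth inhibition determined with a viability assay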
Description: SANGER: Inhibition of human HOP-62 cell growth in a cell viability assay.

[29] = system: GT3TKB; format: functional, cell-based, Homo sapiens; conditions: Homo sapiens, GT3TKB;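 note: growth inhibition of the cell line, read out with a cell viability assay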
Description: SANGER: Inhibition of human GT3TKB cell growth in a cell viability assay.

[30] = system: PSN1; format: functional, cell-based, Homo sapiens; conditions: Homo sapiens, PSN1;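 note: suppression of growth of human PSN1 cells, read out by a cell viability assay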
Description: SANGER: Inhibition of human PSN1 cell growth in a cell viability assay.

[31] = system: ES1; format: functional, cell-based, Homo sapiens; conditions: Homo sapiens, ES1;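 note: growth inhibition of ES1 cells, read out with a cell viability assay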
Description: SANGER: Inhibition of human ES1 cell growth in a cell viability assay.

[32] = system: LB2241-RCC; format: functional, cell-based, Homo sapiens; conditions: Homo sapiens, LB2241-RCC;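 note: cell viability assay measuring how strongly the cultured human renal carcinoma line is prevented from growing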
Description: SANGER: Inhibition of human LB2241-RCC cell growth in a cell viability assay.

[33] = system: NCI-H226; format: functional, cell-based, Homo sapiens; conditions: Homo sapiens, NCI-H226;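 note: cell viability read-out used to gauge growth inhibition of the cells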
Description: SANGER: Inhibition of human NCI-H226 cell growth in a cell viability assay.

[34] = system: LS-1034; format: functional, cell-based, Homo sapiens; conditions: Homo sapiens, LS-1034
Description: SANGER: Inhibition of human LS-1034 cell growth in a cell viability assay.

[35] = system: LXF-289 cell line; format: functional, cell-based; conditions: Homo sapiens
Description: SANGER: Inhibition of human LXF-289 cell growth in a cell viability assay.

[36] = system: NB69; format: functional, cell-based, Homo sapiens; conditions: Homo sapiens, NB69;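 note: growth inhibition of NB69 cells, determined by a cell viability assay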
Description: SANGER: Inhibition of human NB69 cell growth in a cell viability assay.

[37] = system: DSH1; format: functional, cell-based; conditions: Homo sapiens;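 note: growth inhibition of human DSH1 cells, measured with a cell viability readout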
Description: SANGER: Inhibition of human DSH1 cell growth in a cell viability assay.

[38] = system: KNS-81-FD; format: functional, cell-based, Homo sapiens; conditions: Homo sapiens, KNS-81-FD;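 note: growth inhibition of KNS-81-FD cells, read out with a cell viability assay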
Description: SANGER: Inhibition of human KNS-81-FD cell growth in a cell viability assay.

[39] = system: KM12; format: functional, cell-based, Homo sapiens; conditions: Homo sapiens, KM12;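 note: KM12 cell growth inhibition, read out with a cell viability assay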
Description: SANGER: Inhibition of human KM12 cell growth in a cell viability assay.

[40] = system: A4-Fuk; format: functional, cell-based, Homo sapiens; conditions: Homo sapiens, A4-Fuk;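 note: growth inhibition of A4-Fuk cells, read out by a cell viability assay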
Description: SANGER: Inhibition of human A4-Fuk cell growth in a cell viability assay.

[41] = system: GOTO; format: functional, cell-based, Homo sapiens; conditions: Homo sapiens, GOTO;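 note: growth inhibition of GOTO cells, read out by a cell viability assay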
Description: SANGER: Inhibition of human GOTO cell growth in a cell viability assay.

[42] = system: IST-MEL1; format: functional, cell-based, Homo sapiens; conditions: Homo sapiens, IST-MEL1;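 note: growth inhibition of the cell line, read out with a cell viability assay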
Description: SANGER: Inhibition of human IST-MEL1 cell growth in a cell viability assay.

[43] = system: NCI-H1155; format: functional, cell-based, Homo sapiens; conditions: Homo sapiens, NCI-H1155;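 note: cell growth inhibition measured by a viability assay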
Description: SANGER: Inhibition of human NCI-H1155 cell growth in a cell viability assay.

[44] = system: NCI-H1650; format: functional, cell-based, Homo sapiens; conditions: Homo sapiens, NCI-H1650;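 note: growth inhibition of human NCI-H1650 cells measured by a cell viability assay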
Description: SANGER: Inhibition of human NCI-H1650 cell growth in a cell viability assay.

[45] = system: ES3; format: functional, cell-based, Homo sapiens; conditions: Homo sapiens, ES3;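 note: growth inhibition of ES3 cells, read out with a cell viability assay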
Description: SANGER: Inhibition of human ES3 cell growth in a cell viability assay.

[46] = system: KARPAS-45; format: functional, cell-based, Homo sapiens; conditions: Homo sapiens, KARPAS-45;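 note: inhibition of cell line growth, read out through a viability assay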
Description: SANGER: Inhibition of human KARPAS-45 cell growth in a cell viability assay.

[47] = system: KM-H2; format: functional, cell-based, Homo sapiens; conditions: Homo sapiens, KM-H2;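 note: growth inhibition of KM-H2 cells, read out by a cell viability assay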
Description: SANGER: Inhibition of human KM-H2 cell growth in a cell viability assay.

[48] = system: KALS-1; format: functional, cell-based, Homo sapiens; conditions: Homo sapiens, KALS-1; read-out: IC50;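 note: growth inhibition of KALS-1 cells, determined with a cell viability assay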
Description: SANGER: Inhibition of human KALS-1 cell growth in a cell viability assay.

[49] = system: LB2518-MEL; format: functional, cell-based; conditions: Homo sapiens;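 note: growth inhibition of human LB2518-MEL cells, measured with a cell viability assay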
Description: SANGER: Inhibition of human LB2518-MEL cell growth in a cell viability assay.

[50] = system: SF-268; format: functional, cell-based, Homo sapiens; conditions: Homo sapiens, SF-268;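 note: growth inhibition of SF-268 cells determined with a cell viability assay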
Description: SANGER: Inhibition of human SF268 cell growth in a cell viability assay.

## C/C(=C\c1csc(C)n1)[C@@H]1C[C@@H]2O[C@]2(C)CCC[C@H](C)[C@H](O)[C@@H](C)C(=O)C(C)(C)[C@@H](O)CC(=O)O1 [PATUPILONE]
[1]
  IC50: 0.00855 µM
[2]
  IC50: 0.000393 µM
[3]
  IC50: 0.00756 µM
[4]
  IC50: 0.005 µM
[5]
  IC50: 0.00106 µM
[6]
  IC50: > 0.032 µM
[7]
  IC50: > 0.032 µM
[8]
  IC50: 0.0141 µM
[9]
  IC50: > 0.032 µM
[10]
  IC50: 0.00161 µM
[11]
  IC50: > 0.032 µM
[12]
  IC50: > 0.032 µM
[13]
  IC50: > 0.032 µM
[14]
  IC50: 0.0214 µM
[15]
  IC50: > 0.032 µM
[16]
  IC50: 0.000436 µM
[17]
  IC50: 0.00587 µM
[18]
  IC50: 0.00263 µM
[19]
  IC50: 0.000999 µM
[20]
  IC50: 0.0028 µM
[21]
  IC50: 0.000997 µM
[22]
  IC50: 0.00697 µM
[23]
  IC50: 0.000982 µM
[24]
  IC50: 0.00121 µM
[25]
  IC50: 0.0043 µM
[26]
  IC50: 0.00671 µM
[27]
  IC50: 0.00759 µM
[28]
  IC50: 0.00104 µM
[29]
  IC50: 0.000655 µM
[30]
  IC50: 0.000173 µM
[31]
  IC50: 0.000221 µM
[32]
  IC50: 0.00555 µM
[33]
  IC50: > 0.032 µM
[34]
  IC50: 0.000912 µM
[35]
  IC50: 0.000227 µM
[36]
  IC50: 0.00807 µM
[37]
  IC50: > 0.032 µM
[38]
  IC50: > 0.032 µM
[39]
  IC50: 0.00224 µM
[40]
  IC50: 0.00109 µM
[41]
  IC50: > 0.032 µM
[42]
  IC50: 0.00406 µM
[43]
  IC50: > 0.032 µM
[44]
  IC50: 0.00954 µM
[45]
  IC50: 0.015 µM
[46]
  IC50: 0.00582 µM
[47]
  IC50: 0.00906 µM
[48]
  IC50: 0.00319 µM
[49]
  IC50: 0.0176 µM
[50]
  IC50: 0.00466 µM

## Cc1ccc(C(=O)Nc2ccc(CN3CCN(C)CC3)c(C(F)(F)F)c2)cc1C#Cc1cnc2cccnn12 [PONATINIB]
[1]
  IC50: > 0.512 µM
[2]
  IC50: > 0.512 µM
[3]
  IC50: > 0.512 µM
[4]
  IC50: > 0.512 µM
[5]
  IC50: > 0.512 µM
[6]
  IC50: > 0.512 µM
[7]
  IC50: > 0.512 µM
[8]
  IC50: 0.0906 µM
[9]
  IC50: > 0.512 µM
[10]
  IC50: 0.416 µM
[11]
  IC50: > 0.512 µM
[12]
  IC50: > 0.512 µM
[13]
  IC50: > 0.512 µM
[14]
  IC50: > 0.512 µM
[15]
  IC50: > 0.512 µM
[16]
  IC50: > 0.512 µM
[17]
  IC50: > 0.512 µM
[18]
  IC50: > 0.512 µM
[19]
  IC50: 0.3 µM
[20]
  IC50: 0.00169 µM
[21]
  IC50: > 0.512 µM
[22]
  IC50: > 0.512 µM
[23]
  IC50: > 0.512 µM
[24]
  IC50: > 0.512 µM
[25]
  IC50: > 0.512 µM
[26]
  IC50: > 0.512 µM
[27]
  IC50: > 0.512 µM
[28]
  IC50: 0.361 µM
[29]
  IC50: > 0.512 µM
[30]
  IC50: > 0.512 µM
[31]
  IC50: > 0.512 µM
[32]
  IC50: > 0.512 µM
[33]
  IC50: > 0.512 µM
[34]
  IC50: > 0.512 µM
[35]
  IC50: > 0.512 µM
[36]
  IC50: > 0.512 µM
[37]
  IC50: > 0.512 µM
[38]
  IC50: > 0.512 µM
[39]
  IC50: 0.0974 µM
[40]
  IC50: > 0.512 µM
[41]
  IC50: > 0.512 µM
[42]
  IC50: > 0.512 µM
[43]
  IC50: > 0.512 µM
[44]
  IC50: > 0.512 µM
[45]
  IC50: > 0.512 µM
[46]
  IC50: 0.489 µM
[47]
  IC50: > 0.512 µM
[48]
  IC50: > 0.512 µM
[49]
  IC50: > 0.512 µM
[50]
  IC50: 0.449 µM

## COc1cc(N2CCC(N3CCN(C)CC3)CC2)ccc1Nc1ncc(Cl)c(Nc2ccccc2S(=O)(=O)C(C)C)n1 [TAE-684]
[1]
  IC50: > 2 µM
[2]
  IC50: > 2 µM
[3]
  IC50: > 2 µM
[4]
  IC50: 0.481 µM
[5]
  IC50: 0.106 µM
[6]
  IC50: > 2 µM
[7]
  IC50: > 2 µM
[8]
  IC50: > 2 µM
[9]
  IC50: 1.29 µM
[10]
  IC50: 0.406 µM
[11]
  IC50: > 2 µM
[12]
  IC50: > 2 µM
[13]
  IC50: > 2 µM
[14]
  IC50: > 2 µM
[15]
  IC50: > 2 µM
[16]
  IC50: 1.2 µM
[17]
  IC50: > 2 µM
[18]
  IC50: > 2 µM
[19]
  IC50: 0.165 µM
[20]
  IC50: > 2 µM
[21]
  IC50: > 2 µM
[22]
  IC50: > 2 µM
[23]
  IC50: 0.279 µM
[24]
  IC50: > 2 µM
[25]
  IC50: > 2 µM
[26]
  IC50: 0.635 µM
[27]
  IC50: 1.78 µM
[28]
  IC50: 0.65 µM
[29]
  IC50: > 2 µM
[30]
  IC50: 0.196 µM
[31]
  IC50: > 2 µM
[32]
  IC50: 0.988 µM
[33]
  IC50: > 2 µM
[34]
  IC50: 0.636 µM
[35]
  IC50: 1.03 µM
[36]
  IC50: 0.318 µM
[37]
  IC50: > 2 µM
[38]
  IC50: > 2 µM
[39]
  IC50: > 2 µM
[40]
  IC50: 0.0557 µM
[41]
  IC50: > 2 µM
[42]
  IC50: > 2 µM
[43]
  IC50: > 2 µM
[44]
  IC50: > 2 µM
[45]
  IC50: > 2 µM
[46]
  IC50: 0.843 µM
[47]
  IC50: > 2 µM
[48]
  IC50: 1.34 µM
[49]
  IC50: > 2 µM
[50]
  IC50: 0.84 µM
